Assay [1] concerns the target T1, glycine binding site on the NMDA receptor (Rattus norvegicus, UniProt P35439).
T1 construct: membrane preparations from rat brain; from tissue; host or cells: rat brain membranes
The assay is described as follows: Inhibition of [3H]-DCKA (3H-5,7-dichlorokynurenic acid) binding to the glycine binding site on the NMDA receptor, rat brain membranes.
Method: In order to determine the unspecific binding, the corresponding ligands with concentrations of 1 mM glycine and, respectively, 1 mM glutamate are added. Membrane-bound radioligand is separated from non-bound ligands by centrifugation (15 min, at 40 000 kg; ^3 H-DCKA) or filtration (combination of Whatmann GF/C and GF/B filters; ^3 H-AMPA).
The described substances are used in the binding experiments in different concentrations. The concentrations which inhibited 50% of the binding were determined on the basis of dosage-activity curves for the inhibition of the binding of the corresponding radioligands.

Assay [2] concerns the target glutamate binding site on the kainate/AMPA receptor. Put plainly: Inhibition of [3H]-AMPA binding to the glutamate binding site on the kainate/AMPA receptor, rat brain membranes. As to conditions: 10 nM ^3 H-AMPA; membrane preparations from rat brain; unspecific binding with 1 mM glutamate; filtration. On the procedure:
Carefully washed membrane preparations from rat brain are used for the binding studies. The radioligands are used with concentrations of 20 nM ^3 H-DCKA and, respectively, 10 nM ^3 H-AMPA.
In order to determine the unspecific binding, the corresponding ligands with concentrations of 1 mM glycine and, respectively, 1 mM glutamate are added. Membrane-bound radioligand is separated from non-bound ligands by centrifugation (15 min, at […]; ^3 H-DCKA) or filtration (combination of Whatmann GF/C and GF/B filters; ^3 H-AMPA).
The described substances are used in the binding experiments in different concentrations.

Where [3] appears, read: 20 nM ^3 H-DCKA, membrane preparations from rat brain, unspecific binding with 1 mM glycine, centrifugation, read-out: [^3 H]-DCKA IC50.

The structures appear in SMILES notation. Where a name gives a salt, the structure may show the parent alone. Read-outs that look alike come from different tables or passages of the source.

The term IC50 denotes the concentration that gives 50% inhibition.

Consider `O=c1[nH]nc2c3ccc(Cl)cc3[nH]c(=O)n12` [Example 3, 8-Chloro-2,3,5,6-tetrahydro-1,2,4-triazolo[4,3-c]quinazoline-3,5-dione], for which the IC50 in assay [1] (setting [3]) stood at 432 nM; in assay [2] it was 1750 nM.

On to `O=c1[nH]nc2c3ccc(F)cc3[nH]c(=O)n12` [Example 6, 8-Fluoro-2,3,5,6-tetrahydro-1,2,4-triazolo[4,3-c]quinazoline-3,5-dione], for which the IC50 in assay [1] (setting [3]) was 710 nM; in assay [2], 8160 nM.

Take `O=c1[nH]nc2c3ccc(Br)cc3[nH]c(=O)n12` [Example 8, 8-Bromo-2,3,5,6-tetrahydro-1,2,4-triazolo[4,3-c]quinazoline-3,5-dione]: the IC50 in assay [1] (setting [3]) was found to be 322 nM; in assay [2] it was 1170 nM.

Turning to `O=c1[nH]nc2c3ccc(I)cc3[nH]c(=O)n12` [Example 9, 8-Iodo-2,3,5,6-tetrahydro-1,2,4-triazolo[4,3-c]quinazoline-3,5-dione], the IC50 in assay [1] (setting [3]) turned out to be 189 nM; in assay [2], 1480 nM.

Take `O=c1[nH]nc2c3cc(F)c(Cl)cc3[nH]c(=O)n12` [Example 10, 8-Chloro-9-fluoro-2,3,5,6-tetrahydro-1,2,4-triazolo[4,3-c]quinazoline-3,5-dione]: the IC50 in assay [1] (setting [3]) is 202 nM; in assay [2], 1250 nM.

As to `O=c1[nH]nc2c3cc(Cl)c(Cl)cc3[nH]c(=O)n12` [Example 11, 8,9-Dichloro-2,3,5,6-tetrahydro-1,2,4-triazolo[4,3-c]quinazoline-3,5-dione], the values for the IC50 in assay [1] (setting [3]) and in assay [2] were 31 nM and 660 nM, respectively.

As for `O=c1[nH]nc2c3c(Cl)cc(Cl)cc3[nH]c(=O)n12` [Example 12, 8,10-Dichloro-2,3,5,6-tetrahydro-1,2,4-triazolo[4,3-c]quinazoline-3,5-dione], the IC50 in assay [1] (setting [3]) is 79 nM; in assay [2], 620 nM.

As to `Cc1cc2[nH]c(=O)n3c(=O)[nH]nc3c2cc1C` [Example 14, 8,9-Dimethyl-2,3,5,6-tetrahydro-1,2,4-triazolo[4,3-c]quinazoline-3,5-dione], the IC50 in assay [1] (setting [3]) was 132 nM; in assay [2], 2310 nM.

`COc1ccc2c(c1)[nH]c(=O)n1c(=O)[nH]nc21` [Example 17, 8-Methoxy-2,3,5,6-tetrahydro-1,2,4-triazolo[4,3-c]quinazoline-3,5-dione]: the values for the IC50 in assay [1] (setting [3]) and in assay [2] were 180 nM and 2370 nM, respectively.

Consider `O=c1[nH]nc2c3ccc([N+](=O)[O-])cc3[nH]c(=O)n12` [Example 21, 8-Nitro-2,3,5,6-tetrahydro-1,2,4-triazolo[4,3-c]quinazoline-3,5-dione], for which the IC50 in assay [1] (setting [3]) is 690 nM; in assay [2], 243 nM.

With `O=c1[nH]nc2c3ccc(C(F)(F)F)cc3[nH]c(=O)n12` [Example 23, 8-Trifluoromethyl-2,3,5,6-tetrahydro-1,2,4-triazolo[4,3-c]quinazoline-3,5-dione], the values for the IC50 in assay [1] (setting [3]) and in assay [2] were 379 nM and 1010 nM, respectively.

In the case of `O=c1[nH]nc2c3cc([N+](=O)[O-])c(Cl)cc3[nH]c(=O)n12` [Example 24, 8-Chloro-9-nitro-2,3,5,6-tetrahydro-1,2,4-triazolo[4,3-c]quinazoline-3,5-dione], the IC50 in assay [1] (setting [3]) turned out to be 359 nM; in assay [2], 362 nM.

On to `O=c1[nH]nc2c3cc(Cl)c([N+](=O)[O-])cc3[nH]c(=O)n12` [Example 25, 9-Chloro-8-nitro-2,3,5,6-tetrahydro-1,2,4-triazolo[4,3-c]quinazoline-3,5-dione], for which the IC50 in assay [1] (setting [3]) and in assay [2] was 50 nM throughout.

Take `O=c1nc2c3cc(Cl)c([N+](=O)[O-])cc3[nH]c(=O)n2[nH]1` [Example 26, 9-Chloro-8-nitro-1-yl-2,3,5,6-tetrahydro-[1,2,4]triazolo[1,5-c]quinazoline-2,5-dione sodium salt]: the figures for the half-inhibitory concentration (IC50) in assay [1] (setting [3]) and in assay [2] were 43 nM and 82 nM, respectively.

As to `O=c1[nH]nc2c3cc(F)c([N+](=O)[O-])cc3[nH]c(=O)n12` [Example 27, 9-Fluoro-8-nitro-2,3,5,6-tetrahydro-1,2,4-triazolo[4,3-c]quinazoline-3,5-dione], the figures for the IC50 in assay [1] (setting [3]) and in assay [2] were 360 nM and 189 nM, respectively.

Consider `Nc1cc2c(cc1Cl)[nH]c(=O)n1c(=O)[nH]nc21` [Example 29, 9-amino-8-chloro-2,3,5,6-tetrahydro-1,2,4-triazolo[4,3-c]quinazoline-3,5-dione hydrochloride], for which the IC50 turned out to be 1320 nM in assay [1] (setting [3]) and 8590 nM in assay [2].

As to `CN(C)c1cc2c(cc1[N+](=O)[O-])[nH]c(=O)n1c(=O)[nH]nc21` [Example 30, 9-Dimethylamino-8-nitro-2,3,5,6-tetrahydro-1,2,4-triazolo[4,3-c]quinazoline-3,5-dione], the IC50 in assay [1] (setting [3]) came to 342 nM; in assay [2] it was 47 nM.

For `O=c1[nH]nc2c3cc(N4CCCC4)c([N+](=O)[O-])cc3[nH]c(=O)n12` [Example 32, 8-Nitro-9-pyrrolidin-1-yl-2,3,5,6-tetrahydro-1,2,4-triazolo-[4,3-c]quinazoline-3,5-dione], the IC50 was 3600 nM in assay [1] (setting [3]) and 163 nM in assay [2].

Turning to `O=c1[nH]nc2c3cc(N4CCOCC4)c([N+](=O)[O-])cc3[nH]c(=O)n12` [Example 34, 9-morpholin-4-yl-8-nitro-2,3,5,6-tetrahydro-1,2,4-triazolo[4,3-c]quinazoline-3,5-dione], the IC50 came out at 8540 nM in assay [1] (setting [3]) and 296 nM in assay [2].

For `O=c1nc2c3cc(-n4ccnc4)c([N+](=O)[O-])cc3[nH]c(=O)n2[nH]1` [Example 36, 9-Imidazol-1-yl-8-nitro-2,3,5,6-tetrahydro-[1,2,4]-triazolo[1,5-c]quinazoline-2,5-dione], the results for the concentration for half-maximal inhibition (IC50) in assay [1] (setting [3]) and in assay [2] were 2560 nM and 16 nM, respectively.

For the compound `O=c1[nH]nc2c3cc([N+](=O)[O-])c([N+](=O)[O-])cc3[nH]c(=O)n12` [Example 37, 8,9-Dinitro-2,3,5,6-tetrahydro-1,2,4-triazolo[4,3-c]quinazoline-3,5-dione], the figures for the IC50 in assay [1] and in assay [2] were 640 nM and 117 nM, respectively.

Regarding `O=c1[nH]nc2c3cc(Br)c([N+](=O)[O-])cc3[nH]c(=O)n12` [Example 38, 9-Bromo-8-nitro-2,3,5,6-tetrahydro-1,2,4-triazolo[4,3-c]quinazoline-3,5-dione], the IC50 in assay [1] (setting [3]) amounted to 68 nM; in assay [2], 71 nM.

In the case of `O=c1[nH]ncc2c1c(O)nc1cc(Cl)ccc12` [Example 43, 8-Chloro-5-hydroxy-3,4-dihydro-pyridazino [4,5-c]quinolin-4-one], the IC50 in assay [1] (setting [3]) was 909 nM.

With `O=c1[nH][nH]c2c1c(O)nc1cc(Cl)ccc12` [Example 48, 7-Chloro-4-hydroxy-2,3-dihydro-1H-pyrazolo[4,3-c]quinolin-3-one], the IC50 in assay [1] (setting [3]) turned out to be 193 nM; in assay [2], 7310 nM.

Turning to `O=c1[nH][nH]c2c1c(O)nc1cc(Cl)c(Cl)cc12` [Example 49, 7,8-Dichloro-4-hydroxy-2,3-dihydro-1H-pyrazolo[4,3-c]quinolin-3-one], the IC50 stood at 73 nM in assay [1] (setting [3]) and 1370 nM in assay [2].

Take `O=c1[nH]oc2c1c(=O)[nH]c1cc([N+](=O)[O-])ccc12` [Example 55, 7-nitro-2,3,4,5-tetrahydro-isoxazol-[4,5-c]quinoline-3,4-dione]: the IC50 in assay [1] (setting [3]) was determined as 459 nM; in assay [2] it was 421 nM.

On to `O=c1[nH]oc2c1c(=O)[nH]c1cc(Cl)ccc12` [Example 56, 7-Chloro-2,3,4,5-tetrahydro-isoxazolo[4,5-c]quinoline-3,4-dione], for which the figures for the IC50 in assay [1] (setting [3]) and in assay [2] were 266 nM and 20 nM, respectively.

`O=c1nc2c3cc(N4CCCC4)c([N+](=O)[O-])cc3[nH]c(=O)n2[nH]1` [sodium salt]: the figures for the IC50 in assay [1] (setting [3]) and in assay [2] were 3060 nM and 336 nM, respectively.

For the origin of these results see US5688803A, “Tricyclic dicarbonyl derivatives” (Hoffmann-La Roche Inc., priority 1994, dated 1997).
